# Several values for one entry are separate records, joined by “and”; a condition that tells them apart may be missing. Identical values can stand only once.
# How the values were obtained:
# H526 cells = experiment: MTT cell growth assay, H526; type: cell-based, human; details: 5 days
# Procedure: (§1) Fig. 2 NHWD-870 inhibited BRD4 phosphorylation and c-MYC expression, and suppressed cell growth. a Representative western blot analysis of p-BRD4 (s484/488), BRD4, c-MYC, and GAPDH after treatment of MDA-MB231, SUM159, A2780 ES-2, and H526 cells with JQ-1 or NHWD-870 at the indicated concentrations for 24 h. GAPDH served as the loading control. Selected from three independent experiments. b MTT assays of H526, A2780, ES-2, and MDA-MB231 cells treated with JQ-1 or NHWD-870 at the indicated concentrations for 5 days. Data are presented as mean ± SEM from three independent experiments. c, d Clonogenic assays of H526, A2780, ES-2 and MDA-MB231 cells treated with 250 nM JQ-1 or NHWD-870 for 5 days. Shown are representative images (c) and quantification of colonies (d). […] Shown are representative images (e) and quantification of relative colony sizes (f). Scale bar, 50 μm. Data are presented as mean ± SEM from five independent experiments. p values were calculated using two-tailed, unpaired t tests in this figure. **p < 0.01; ***p < 0.001. Source data are provided as a Source Data file.
# 37℃, 5% CO2. […]
# ES-2 cells = experiment: Clonogenic (colony formation) assay, ES-2; type: cell-based, human; details: ES-2, 250 nM, 5 days
# Procedure: as §1, with “file. […]” for “file.”
# 5. Colony formation assay. Cells were seeded in 6-well plates at 3,000 cells/well […]
# every week. […] Colony numbers were calculated with imageJ version
# [1] = target: T1, human Ether-à-go-go related gene (hERG) channel (Homo sapiens, UniProt Q12809); experiment: hERG channel assay, manual patch-clamp; type: cell-based; details: HEK293 cells stably transfected with hERG, read-out: IC50, inhibition of hERG channel
# T1 construct: host or cells: HEK293, stably transfected, expression induced with doxycycline
# T1 sequence (Q12809 whole entry): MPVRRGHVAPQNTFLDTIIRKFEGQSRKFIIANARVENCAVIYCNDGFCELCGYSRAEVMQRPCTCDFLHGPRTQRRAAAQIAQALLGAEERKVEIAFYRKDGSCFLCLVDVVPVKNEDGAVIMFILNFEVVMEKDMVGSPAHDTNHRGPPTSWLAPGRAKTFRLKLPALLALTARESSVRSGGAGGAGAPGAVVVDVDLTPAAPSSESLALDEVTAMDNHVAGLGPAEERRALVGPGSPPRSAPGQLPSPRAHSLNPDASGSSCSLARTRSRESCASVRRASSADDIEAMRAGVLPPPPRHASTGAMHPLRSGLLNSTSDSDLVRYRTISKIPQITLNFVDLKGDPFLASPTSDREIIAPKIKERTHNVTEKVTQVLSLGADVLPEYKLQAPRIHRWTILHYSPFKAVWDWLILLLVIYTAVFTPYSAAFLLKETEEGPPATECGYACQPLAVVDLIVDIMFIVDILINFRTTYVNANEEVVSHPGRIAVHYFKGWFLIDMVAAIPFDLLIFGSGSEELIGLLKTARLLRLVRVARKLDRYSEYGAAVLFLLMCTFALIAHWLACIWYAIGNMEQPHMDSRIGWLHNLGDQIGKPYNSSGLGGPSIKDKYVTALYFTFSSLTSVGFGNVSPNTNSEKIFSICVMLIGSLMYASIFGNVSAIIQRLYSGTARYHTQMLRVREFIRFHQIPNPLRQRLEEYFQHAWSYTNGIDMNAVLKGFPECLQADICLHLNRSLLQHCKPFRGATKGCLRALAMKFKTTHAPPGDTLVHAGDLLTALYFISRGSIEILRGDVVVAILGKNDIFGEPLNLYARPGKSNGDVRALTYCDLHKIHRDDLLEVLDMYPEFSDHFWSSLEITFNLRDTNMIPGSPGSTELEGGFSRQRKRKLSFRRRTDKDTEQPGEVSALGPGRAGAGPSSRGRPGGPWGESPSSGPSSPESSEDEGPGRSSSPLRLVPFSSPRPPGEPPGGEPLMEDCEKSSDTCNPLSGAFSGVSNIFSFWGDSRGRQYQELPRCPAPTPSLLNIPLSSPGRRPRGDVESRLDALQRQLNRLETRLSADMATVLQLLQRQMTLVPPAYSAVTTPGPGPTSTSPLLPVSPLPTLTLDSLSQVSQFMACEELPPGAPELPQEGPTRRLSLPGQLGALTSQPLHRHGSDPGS
# Procedure: calculated concentration on the dialysate side of the membrane; T0 = To t a l compound concentration as determined before dialysis. Good plasma stability should have a value of not less than 80% bound, and the recovery rate should be […]
# 9. In vivo pharmacokinetics study. Mouse and SD rat models were used to evaluate pharmacokinetic property of NHWD-870. NHWD-870 was administrated by either intravenous injection (IV, 1.75 mg/kg for mouse and 1 mg/kg for rat) or oral gavage (PO, 5 mg/kg) into mice or rats. Concentration of drugs in plasma, lung and tumor tissues were measured for the indicated time.
# 10. hERG channel assay. The potential inhibitory effect of NHWD-870 on human Ether-à-go-go related gene (hERG) channel was evaluated by manual patch-clamp system using the protocols described below. HEK293 cell line stably
# [2] = Equilibrium dialysis assay, CD-1 mouse plasma
# Procedure: The concentration was calculated using the peak area ratio of analyte and internal […]
# The results were calculated by the following equations:
# % Unbound = 100 *FC / TC, % Bound = 100 * (1-FC / TC)
# % Recovery = 100 * (FC + TC) / T0
# TC = Total compound concentration as determined by the calculated concentration on the retentate side of the membrane
# FC = Free compound concentration as determined by the calculated concentration on the dialysate side of the membrane […]
# Equation of first order kinetics: […]
# 8. Equilibrium dialysis assay. Binding with plasma protein and recovery rate of NHWD-870 were performed with human, CD-1 mouse and SD rat plasma as […]
# described 2. […] The concentration was […]
# calculated using the peak area ratio of analyte and internal standard. The results were calculated by the following equations: % Unbound = 100 *FC / TC, % Bound = 100 * (1-FC / TC); % Recovery = 100 * (FC + TC) / T0; TC = Total compound concentration as determined by the calculated concentration on the retentate side of the membrane; FC = Free compound concentration as determined by the (1 picture or pasted object on this page, not shown here) […]
# calculated concentration on the dialysate side of the membrane; T0 = To t a l compound concentration as determined before dialysis. […]
# 10. hERG channel assay. […]
# HEK293 cell line stably
smiles,measurement,setting,value
Cc1nnn(C)c1-c1cnc2c3c4cnn(C)c4ccc3n([C@H](c3ccccc3)C3CCOCC3)c2c1 [NHWD-870],"MTT assay, relative cell number","H526 cells; H526, 0.1 nM",0.977 and 0.969 and 0.948
same,"MTT assay, relative cell number","H526 cells; H526, 1 nM",0.658 and 0.633 and 0.625
same,"MTT assay, relative cell number","H526 cells; H526, 10 nM",0.268 and 0.226 and 0.235
same,"MTT assay, relative cell number","H526 cells; H526, 100 nM",0.103 and 0.115 and 0.127
same,"MTT assay, relative cell number","H526 cells; H526, 500 nM",0
same,"MTT assay, relative cell number","H526 cells; H526, 1000 nM",0
same,"MTT assay, relative cell number","H526 cells; H526, 5000 nM",0
same,"MTT assay, relative cell number","H526 cells; H526, 10000 nM",0
same,Clone Number (clonogenic assay),ES-2 cells,146 and 155 and 103 and 98 and 133
same,IC50,[1],5.4 µM
same,fraction unbound,"[2]; CD-1, mouse, plasma",0.026
same,recovery,"[2]; CD-1, mouse, plasma",95.2%
same,% Bound,"[2]; CD-1 mouse plasma, equilibrium dialysis",97.4%
